The values that follow come from article PMC9343747 (Phytochemistry Letters, 2022).

The test system of series [1] is SARS-CoV-2 pseudovirus. Kind of series: microbe, parasite or virus in culture. In kind it is cell-based. Particulars: Severe acute respiratory syndrome-related coronavirus, read-out: Inhibition rate (%), 5.0 µM, BHK-21-hACE2 cells.
The subject of series [2] is SARS-CoV-2 pseudovirus. Nature of the series: microbe, parasite or virus in culture. In kind it is cell-based. Particulars: Severe acute respiratory syndrome-related coronavirus, read-out: EC50, concentration resulting in 50% inhibition of virus replication.
Another series is described as follows: in vitro. To be noted: hamster, Cell viability (%), BHK-21-hACE2 cells.
The subject of series [3] is influenza virus A/Puerto Rico/8/34 (H1N1). The format is cell-based. To be noted: read-out: IC50, concentration resulting in 50% inhibition of virus replication; A/Puerto Rico/8/34 (H1N1) in MDCK cells.

Consider `CCN(CC)Cc1cc(Nc2ccnc3cc(Cl)ccc23)ccc1O` [Amodiaquine, amodiaquine], for which, in the series with SARS-CoV-2 pseudovirus [1], the inhibition at 5 µM was determined as 92.4%. Also, the EC50 in the series on SARS-CoV-2 pseudovirus [2] worked out at 3.17 µM. Moreover, in “in vitro”, the viability at 20 µM worked out at 107%.

Turning to `CCC(CC)O[C@@H]1C=C(C(=O)O)C[C@H](N)[C@H]1NC(C)=O` [Oseltamivir carboxylate], the IC50 in series [3] was determined as 6.4 µM.

By inhibition is commonly meant the drop in the measured response relative to a control, in per cent. A word on the viability: it is a read-out of living cells in per cent, often relative to untreated cells.
